Measurements: PubChem BioAssay AID2423 (Broad Institute, 2010)
Inconclusive results are not listed. Calls of active or inactive are those of the source. No rule for the calls is given here.

tested on: C. albicans CaCi-8 + fluconazole, Alamar Blue growth, 48 h; experiment: resistant C. albicans growth inhibition with fluconazole, dose response, CaCi-8 strain, Alamar Blue fluorescence (AID 2423)

Compound	EC50
Cc1ccc(C2C3=C(CC(C)(C)CC3=O)N=C3c4ccccc4C(=O)C32)cc1 (configuration not stated)	769 nM
COCc1nnc(NC(=O)c2ccc(S(=O)(=O)N3CCCc4ccccc43)cc2)o1	10500 nM
O=C(COc1ccc([N+](=O)[O-])cc1)NNC(=S)NC(=O)c1ccc(Br)cc1	2540 nM
C=CCc1c(C)c(C#N)c2nc3ccccc3n2c1NCCN(C)C	896 nM
Cc1c(CCOC(=O)CC23CC4CC(CC(C)(C4)C2)C3)sc[n+]1Cc1ccc([N+](=O)[O-])cc1	11900 nM
CCOC(=O)c1c(-c2ccccc2)oc2ccc(OCC(O)CN(C)C)cc12 (configuration not stated)	1290 nM
Cc1ccc(S(=O)(=O)CC(C)N2CCOCC2)c(S(=O)(=O)CC(C)N2CCOCC2)c1 (configuration not stated)	> 16000 nM (inactive)
O=C(Nc1cc(F)cc(F)c1)c1ccc(NCCCN2CCCCCC2)c([N+](=O)[O-])c1	> 16000 nM (inactive)
O=C(CNc1ccccc1F)N/N=C/C1CC=CCC1 (configuration not stated)	> 16000 nM (inactive)
Oc1c(C(c2ccccc2Cl)N2CCCC2)ccc2cccnc12 (configuration not stated)	1250 nM
O=C(Nc1ccncc1)c1ccc(Br)cc1	> 15000 nM (inactive)
COc1ccc(Cn2c(O)c(/C=N/NC(=O)c3cccnc3)c3ccccc3c2=O)cc1	765 nM
Cc1ccc(NCc2ccc(O)c3ncccc23)cc1	16000 nM
c1ccc2c(c1)OCC(CNc1ncnc3sccc13)O2 (configuration not stated)	4010 nM
COc1cc(NS(=O)(=O)c2ccc3ccccc3c2)c2ncccc2c1	2560 nM
Oc1ccc(N=Nc2ccccc2C(F)(F)F)c2cccnc12	1080 nM
C=CCOc1ccc(/C=C2\SC(=S)N(NS(=O)(=O)c3ccc(C)cc3)C2=O)cc1	3290 nM
O=C(CN1C(=O)S/C(=C\c2ccccn2)C1=O)Nc1ccccc1	> 15000 nM (inactive)
COc1ccc(C)cc1Nc1n[n+](-c2ccccc2)c(-c2ccc(N(C)C)cc2)s1	3710 nM
Cc1nc2ccccc2cc1OCc1ccc(F)cc1	909 nM
CC1=C(CC[C@@H](C)CO)OC2CC3C4CCC5CC(O)CCC5(C)C4CC(=O)C3(C)C12 (some centres not stated)	135 nM
O=C(N/N=C/c1cc(Br)c(O)c(Br)c1)c1cc2c(ccc3ccccc32)o1	915 nM

Compound	EC50
Cc1ccccc1/C=C1\SC(=S)N(/N=C/c2cc([N+](=O)[O-])ccc2O)C1=O	4060 nM
CCOC(=O)c1c(NC(=O)CN2CCN(C(=O)c3ccco3)CC2)sc2c1CCCC2	> 15000 nM (inactive)
CCn1nc(-c2ccccc2)nc2c(=O)n(C)c(=O)nc1-2	883 nM
CCOc1ccc(-c2ccc(NS(=O)(=O)c3ccc([N+](=O)[O-])cc3)cc2)nn1	2650 nM
C=CCn1c(O)c(N=NC(=S)Nc2ccccc2C)c2cc(S(=O)(=O)N3CCOCC3)ccc21	1190 nM
O=[N+]([O-])c1cc(/C=N/Nc2nc3ccccc3[nH]2)c(O)cc1O	6220 nM
c1ccc(CC2CCN(c3ncnc4sccc34)CC2)cc1	1530 nM
COC(=O)/C(=N\Nc1ccc(Cl)cc1)Sc1nnc(-c2ccc(OC)cc2)n1C	> 16000 nM (inactive)
CC1CCCCN1S(=O)(=O)c1ccc(NC(=O)c2cccc(-n3cnnn3)c2)cc1 (configuration not stated)	> 15000 nM (inactive)
Cc1ccc(Nc2nc(CSc3nnc(-c4ccncc4)n3-c3ccccc3C)cs2)cc1	> 16000 nM (inactive)
CCOc1ccc(NC(=O)NNC(=O)c2ccc3ccccc3c2O)cc1	2460 nM
Cc1nn(-c2ccccc2)c(C)c1C(=O)OC/C(O)=C(\C#N)c1nc2ccccc2[nH]1	1030 nM
O=C(/C=C/c1ccc(F)cc1)N1CCN(c2ccccn2)CC1	800 nM
Oc1nc(Nc2ccccc2)sc1/C=C1\C=Nc2ccccc21	1630 nM
CNCc1ccccc1Sc1ccc(O)c(O)c1	6840 nM
CS/C(=C\[N+](=O)[O-])Nc1ccc(Cl)cc1	4020 nM
Cc1onc(-c2c(F)cccc2Cl)c1C(=O)NNC(=O)C1CCN(Cc2ccccc2)CC1	> 15000 nM (inactive)
COc1cccc(/C=N\NC(=O)c2ccc(Cn3cc(Br)c([N+](=O)[O-])n3)o2)c1O	5070 nM
Nc1ncnc2c1ncn2[C@@H]1O[C@H](CO)C[C@H]1O	> 15000 nM (inactive)
CCCCCCC[n+]1ccc(-c2cc[n+](CCCCCCC)cc2)cc1	< 120 nM
N#C/C(=C(/O)COc1ccc(Cl)cc1)c1nc2ccccc2s1	> 15000 nM (inactive)
Cc1ccc(NC(=O)NNC(=O)c2cc3ccccc3cc2O)cc1C	> 16000 nM (inactive)

Compound	EC50
Oc1ccc2ccccc2c1/C=N/Nc1nnc(-c2ncc[nH]2)c2ccccc12	382 nM
COc1ccc(C)cc1N=Nc1ccc(O)c2ncccc12	656 nM
COc1ccc(-c2nc(-c3ccncc3)no2)cc1OC	7540 nM
COCCSc1nnc(NC(=O)C2CC(=O)N(c3ccc(C)cc3)C2)s1 (configuration not stated)	> 16000 nM (inactive)
C=CC(C)(C)c1c(O)c(CC=C(C)C)c(O)c2c(=O)c3ccc(O)c(O)c3oc12	3410 nM
CCN1CCN(C(c2cccnc2)c2cc(Cl)c3cccnc3c2O)CC1 (configuration not stated)	978 nM
O=C(Nc1nnc(SCc2ccc(F)cc2)s1)c1ccccn1	487 nM
CCN(CC)c1ccc2nc3ccccc3[n+](CC)c2c1	842 nM
Cc1ccc(-c2nc3c(Cl)cc(Cl)cc3c(=O)n2O)cc1	1110 nM
CCCC(=O)NC(c1ccccc1)c1ccc2cccnc2c1O (configuration not stated)	783 nM
Cc1ccc(S(=O)(=O)/N=C2/NC(=O)/C(=C\c3cc(Br)cc(Br)c3O)S2)cc1	9680 nM
N#Cc1c(Cl)nsc1NC(=O)c1ccccc1	> 16000 nM (inactive)
Cc1oc2ccc(OC(=O)N(C)C)cc2c1C(=O)OC(C)C	4000 nM
C/C(=N/NC(=O)c1ccccc1O)c1ccc(N2C(=O)C3CCCCC3C2=O)cc1 (configuration not stated)	> 16000 nM (inactive)
OCCCNc1cc(-c2ccnc(Nc3cccc(Cl)c3)n2)ccn1	939 nM
C(#Cc1ccccc1)C[N+]1(CC#Cc2cccc3ccccc23)CCCC1	5640 nM
O=C(N/N=C\c1c(O)ccc2ccccc12)c1ccc(S(=O)(=O)N2CCCCC2)cc1	279 nM
O=C(CNc1ccc2ccccc2c1)N/N=C/c1ccc([N+](=O)[O-])o1	1280 nM
CCCCC(=O)NNC(=S)NC(=O)C(c1ccccc1)c1ccccc1	1720 nM
Cc1nnc(NC(=O)c2c(-c3ccccc3Cl)noc2C)s1	3080 nM
S=c1nc[nH]c2c1cnn2Cc1ccccc1	2330 nM
CSC(=S)NCc1cccnc1	> 16000 nM (inactive)

Compound	EC50
CC(C)(C)C(=O)NC(=S)NNC(=O)C(c1ccccc1)c1ccccc1	2160 nM
CCCCOc1cccc(C2C(C(=O)c3ccc(C)o3)=C(O)C(=O)N2Cc2ccco2)c1 (configuration not stated)	394 nM
NC1=NC(=O)C(Cc2cccc(Cl)c2Cl)S1 (configuration not stated)	> 16000 nM (inactive)
CCOC(=O)CSc1ccc(C(=O)N2CCN(C)CC2)cc1[N+](=O)[O-]	> 16000 nM (inactive)
CCn1cc(C(=O)OCC(=O)Nc2cccc(Cl)c2Cl)c(=O)c2ccc(C)nc21	> 15000 nM (inactive)
CCN(Cc1ccccc1)S(=O)(=O)c1ccc(C(=O)Nc2nnc(-c3ccccc3OC)o2)cc1	< 120 nM
O=C(NCc1ccc(F)cc1)c1ccc(CS(=O)(=O)Cc2ccccc2F)o1	> 15000 nM (inactive)
COCCNC(=O)NC12CC3CC(CC(C3)C1)C2	> 16000 nM (inactive)
Cc1ccc(S(=O)(=O)/N=C(/c2ccccc2)N2CCOCC2)c(C)c1	> 16000 nM (inactive)
Cc1oc2c(F)c(F)c(F)c(F)c2c1S(=O)(=O)Nc1cccc(C(F)(F)F)c1	1490 nM
O=C1C2CCN(CC2)C1Cc1ccc(OCCOc2ccccc2)cc1 (configuration not stated)	1680 nM
Cc1ccc(-c2cn(-c3ccccc3)c3[n+]2CCCS3)cc1	10300 nM
O=[N+]([O-])c1cccnc1S(=O)(=O)c1ccccc1	865 nM
CCC(C)(C)c1ccc(OCCCC[n+]2ccc(C)cc2)c(C(C)(C)CC)c1	> 16000 nM (inactive)
CC(=O)NC(c1cccs1)c1cc([N+](=O)[O-])c2cccnc2c1O (configuration not stated)	1080 nM
CCOc1cc(-c2nc(-c3cc(OC)c(OC)c(OC)c3)no2)cc(OCC)c1OCC	> 16000 nM (inactive)
CCCCCCc1c(C)nc(-n2[nH]c(C)c(CCO)c2=O)[nH]c1=O	1690 nM
C=CCn1c(=N)n(CC(=O)c2cccc([N+](=O)[O-])c2)c2ccccc21	> 16000 nM (inactive)
CCN(CC)c1ccc(/C=C/c2cccc[n+]2C)c(OC)c1	1230 nM
CC(=O)N1CCN(c2ccc(NC(=O)c3ccc(C(C)(C)C)cc3)cc2)CC1	11900 nM
CCCn1nnnc1NC(=O)c1ccc2ccccc2c1	1660 nM
Cc1c(Cl)c([N+](=O)[O-])nn1Cc1ccc(C(=O)N/N=C\c2cc(Cl)ccc2O)o1	1030 nM

Compound	EC50
CC(=O)c1sc(NC(=O)CCS(=O)(=O)c2ccccc2)nc1C	368 nM
CCCCCn1c(=O)c(C(=O)NCc2ccncc2)c(O)c2ccccc21	1720 nM
Cc1ccccc1C(=O)NNC(=S)NC(=O)c1ccc(Cl)cc1Cl	1390 nM
CCCCCCCSc1nc(N)cc(=O)[nH]1	5940 nM
COc1ccc(CCC(=O)N2CC(C)OC(C)C2)cc1 (configuration not stated)	> 15000 nM (inactive)
CCOCCCNC(=O)c1ccc(N(C)S(=O)(=O)c2ccc(OC)cc2)cc1	> 16000 nM (inactive)
CC(C)[C@H]1C(=O)O[C@H](C(C)C)C(=O)N(C)[C@@H](C(C)C)C(=O)O[C@H](C(C)C)C(=O)N(C)[C@@H](C(C)C)C(=O)O[C@H](C(C)C)C(=O)N1C	> 15000 nM (inactive)
Cc1cccc(C(=O)NNC(=S)NC(=O)c2cccs2)c1	1460 nM
O=C1CC(c2ccccc2)CC(=NCCO)/C1=C(\O)CCCN1C(=O)c2ccccc2C1=O (configuration not stated)	> 15000 nM (inactive)
O=C(/C=C/c1cccc(Cl)c1)c1nc2ccccc2[nH]1	2580 nM
Cn1c(SCC(=O)N2CCCc3ccccc32)nnc1-c1ccccc1	> 16000 nM (inactive)
Nc1cc(N)nc(SCc2cccc(F)c2)n1	> 15000 nM (inactive)
CCOC(=O)c1cc2c(=O)n3ccccc3nc2n(CCOC)c1=NC(=O)c1ccncc1	> 15000 nM (inactive)
CCOC(=O)N=Nc1c2ccccc2c2nc3no[nH]c3nc12	> 15000 nM (inactive)
NNC(=O)c1cc(-c2cccs2)nc2ccccc12	> 15000 nM (inactive)
O=C(CN1C(=O)COc2ccccc21)NCCCN1CCc2ccccc2C1	> 15000 nM (inactive)
O=C(Nc1ccccc1O)c1ccccc1O	784 nM
CC(NC(=O)Nc1ccccc1F)C(C)(C)C (configuration not stated)	> 16000 nM (inactive)
CCN1/C(=C/C=C/c2oc3ccc(-c4ccccc4)cc3[n+]2CC)Oc2ccc(-c3ccccc3)cc21	589 nM
